Key:
[1] = molecular target: Matrix metalloproteinase (1 and 13) (Homo sapiens) (UniProt P45452+P03956); assay: Selectivity for Matrix metalloprotease-1 over Matrix metalloprotease-13; format: protein assay
[2] = Maximum plasma concentration dosed orally in rats; format: ADME, organism-based; set-up: route oral; settings: rat, po
Collagenase 3 = Collagenase 3 (Homo sapiens, UniProt P45452); assay: Inhibition of Matrix metalloprotease-13
Interstitial collagenase = molecular target: T1, Interstitial collagenase (Homo sapiens, UniProt P03956); assay: Inhibition of Matrix metalloprotease-1
T1 sequence (P03956 whole entry): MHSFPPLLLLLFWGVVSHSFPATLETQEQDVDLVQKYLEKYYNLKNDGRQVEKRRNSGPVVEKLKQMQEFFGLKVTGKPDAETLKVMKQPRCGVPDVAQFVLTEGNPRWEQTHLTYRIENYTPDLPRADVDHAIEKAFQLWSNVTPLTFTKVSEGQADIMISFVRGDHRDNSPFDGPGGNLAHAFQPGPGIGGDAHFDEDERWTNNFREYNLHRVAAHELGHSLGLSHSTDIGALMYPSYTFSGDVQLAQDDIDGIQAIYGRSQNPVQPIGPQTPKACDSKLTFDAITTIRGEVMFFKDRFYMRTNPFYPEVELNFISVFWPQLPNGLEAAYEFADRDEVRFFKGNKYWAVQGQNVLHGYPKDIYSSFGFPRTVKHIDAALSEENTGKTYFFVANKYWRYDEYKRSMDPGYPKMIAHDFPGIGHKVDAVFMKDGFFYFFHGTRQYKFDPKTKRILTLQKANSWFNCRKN

[3] = Maximum plasma concentration dosed orally in rats after 6 hours; format: ADME, organism-based; set-up: route oral; settings: rat, po

Compound | Selectivity [1] | Cmax [2] [ng/mL] | IC50 (Collagenase 3) [nM] | IC50 (Interstitial collagenase) [nM] | Cmax [3] [ng/mL]
O=C(NC(CS(=O)(=O)c1ccc(Sc2ccccc2)cc1)C(=O)NO)OCc1ccccc1 (centres undefined) | > 2700 |  |  |  | 
COc1ccc(S(=O)(=O)CC(N)C(=O)NO)cc1 (centres undefined) | 17 |  |  |  | 
O=C(CNC(=O)OCc1ccccc1)NC(CS(=O)(=O)c1ccc(Sc2ccccc2)cc1)C(=O)NO (centres undefined) | > 12000 |  |  |  | 
CC(C)(C)OC(=O)N[C@H](CS(=O)(=O)c1ccc(Sc2ccccc2)cc1)C(=O)NO | > 2500 |  | 4 | > 10000 | 
CN(C(=O)OC(C)(C)C)[C@H](CS(=O)(=O)c1ccc(Oc2ccccc2)cc1)C(=O)NO | 5300 |  |  |  | 
COc1ccc(S(=O)(=O)CC(NC(=O)OC(C)(C)C)C(=O)NO)cc1 (centres undefined) | 100 |  | 15 | 1500 | 
CC(=O)NC(CS(=O)(=O)c1ccc(Sc2ccccc2)cc1)C(=O)NO (centres undefined) | > 1700 |  |  |  | 
NC(CS(=O)(=O)c1ccc(Sc2ccccc2)cc1)C(=O)NO (centres undefined) | 420 |  |  |  | 
O=C(N[C@H](CS(=O)(=O)c1ccc(Sc2ccccc2)cc1)C(=O)NO)OCc1ccccc1 | 20000 |  | 0.4 | 8000 | 
CC(=O)N[C@H](CS(=O)(=O)c1ccc(Sc2ccccc2)cc1)C(=O)NO | 3400 |  | 2.9 | 10000 | 
COc1ccc(S(=O)(=O)CC(NC(=O)CNC(=O)OCc2ccccc2)C(=O)NO)cc1 (centres undefined) | > 40 |  |  |  | 
COc1ccc(S(=O)(=O)CC(NC(C)=O)C(=O)NO)cc1 (centres undefined) | 20 |  |  |  | 

Second part, the molecule after the results:

Selectivity [1] | Cmax [2] [ng/mL] | IC50 (Collagenase 3) [nM] | IC50 (Interstitial collagenase) [nM] | Cmax [3] [ng/mL] | Compound
870 | < 200 | 0.4 | 350 |  | COc1cccc(OC)c1C(=O)N[C@H](CS(=O)(=O)c1ccc(Oc2ccccc2)cc1)C(=O)NO
1600 | < 200 | 0.3 | 500 |  | CC(C)(C)OC(=O)N[C@H](CS(=O)(=O)c1ccc(Oc2ccccc2)cc1)C(=O)NO
450 | 2450 | 0.2 | 90 | 60 | CC(=O)N(C)[C@H](CS(=O)(=O)c1ccc(Oc2ccccc2)cc1)C(=O)NO
1500 |  |  |  |  | Cc1ccc(S(=O)(=O)NC(CS(=O)(=O)c2ccc(Sc3ccccc3)cc2)C(=O)NO)cc1 (centres undefined)
1100 | < 200 | 0.8 | 900 |  | O=C(N[C@H](CS(=O)(=O)c1ccc(Oc2ccccc2)cc1)C(=O)NO)c1ccncc1
1100 | 6660 | 0.4 | 440 | 49 | CN[C@H](CS(=O)(=O)c1ccc(Oc2ccccc2)cc1)C(=O)NO
130 | 710 | 2 |  |  | CN(C(=O)Cc1ccncc1)[C@H](CS(=O)(=O)c1ccc(Oc2ccccc2)cc1)C(=O)NO
670 |  |  |  |  | Cc1ccc(S(=O)(=O)NC(CS(=O)(=O)c2ccc(Oc3ccccc3)cc2)C(=O)NO)cc1 (centres undefined)
1300 |  | 1.1 | 1400 |  | O=C(NC(CS(=O)(=O)c1ccc(Oc2ccccc2)cc1)C(=O)NO)OCc1ccccc1 (centres undefined)
2400 |  |  |  |  | CN(Cc1ccccc1)[C@H](CS(=O)(=O)c1ccc(Oc2ccccc2)cc1)C(=O)NO
700 |  | 1.1 | 770 |  | CC(=O)NC(CS(=O)(=O)c1ccc(Oc2ccccc2)cc1)C(=O)NO (centres undefined)
